In publication PMC9012132 (Journal of medicinal chemistry, 2021):
Entries after “also recorded” stand apart in the source; their conditions may differ. Values belong to the compound of their own block, whether it stands above or below them.

Columns and labels:
4T1 breast cancer cells [1] = test: Inhibitor toxicity study in 4T1 cells; type: cell-based, mouse
4T1 breast cancer cells [2] = test: Combination treatment with doxorubicin in 4T1 cells; conditions: combination with 50 nM doxorubicin, 4 days
Stratifin (Sfn) = test: RT-qPCR of BPTF regulated genes in Eph4 cells, Sfn; conditions: 5 μM, 24 h, relative to DMSO
[3] = system: BPTF knockdown (KD) 4T1 cells; test: Inhibitors with doxorubicin in shRNA-mediated BPTF knockdown 4T1 cells; type: cell-based, mouse; conditions: inhibitor and doxorubicin, control for off-target effects
PCAF = target: T1, PCAF (Homo sapiens, UniProt Q92831); conditions: previously reported; cited from earlier work
T1 sequence (Q92831 723-827 limits assumed): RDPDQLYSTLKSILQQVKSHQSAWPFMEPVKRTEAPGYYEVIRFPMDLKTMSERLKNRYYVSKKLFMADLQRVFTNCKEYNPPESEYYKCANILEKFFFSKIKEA

BRD9 = target: T2, BRD9 (Homo sapiens, UniProt Q9H8M2); conditions: previously reported; cited from earlier work
T2 sequence (Q9H8M2 136-240 limits assumed): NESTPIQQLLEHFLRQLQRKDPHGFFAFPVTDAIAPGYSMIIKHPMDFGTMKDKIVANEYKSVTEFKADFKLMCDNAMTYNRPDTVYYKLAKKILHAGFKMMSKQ

5FW-BRD4(1) = 5FW-BRD4(1) (Homo sapiens, UniProt O60885); test: Protein-observed fluorine; type: binding; conditions: qualitative
5FW-PCAF = target: T3, 5FW-PCAF (Homo sapiens, UniProt Q92831); test: Protein-observed fluorine; type: binding; conditions: qualitative
T3 sequence (Q92831 723-827): T1 sequence (Q92831 723-827 limits assumed)

5FW-CECR2 = 5FW-CECR2 (Homo sapiens, UniProt Q9BXF3); test: Protein-observed fluorine; type: binding; conditions: qualitative
Sequence of 5FW-CECR2 (Q9BXF3 434-538): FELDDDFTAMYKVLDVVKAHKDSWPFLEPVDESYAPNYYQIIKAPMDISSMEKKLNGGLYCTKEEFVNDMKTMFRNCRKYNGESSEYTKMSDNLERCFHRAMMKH

BPTF bromodomain = BPTF bromodomain (Homo sapiens, UniProt Q12830); type: binding; conditions: AlphaScreen
BRD4(1) = BRD4(1) (Homo sapiens, UniProt O60885); test: AlphaScreen competitive inhibition assay, BRD4; type: binding
CECR2 = conditions: cited from earlier work

Compound: COC(=O)c1cccc(NC(=O)NC2CCN(c3ccnc(Nc4ccc(F)cc4)n3)C2)c1 (stereo not shown) [AU1, reference compound]
concentration above which sharp toxicity profile starts (4T1 breast cancer cells [1]): above 16 μM | sensitization of 4T1 cells to doxorubicin (4T1 breast cancer cells [2]): synergize | effect on Sfn mRNA level (Stratifin (Sfn)): upregulated Sfn but did not reach a high enough level of statistical significance | further toxicity in BPTF knockdown cells [3]: Additional toxicity

Compound: Cn1ncc(Nc2ccccc2)c(Cl)c1=O [Compound 6, 4-chloro-2-methyl-5-(phenylamino)pyridazin-3(2H)-one]
affinity for PCAF (PCAF): 10 µM | affinity for BRD9 (BRD9): 2.5 µM

Compound: Cn1ncc(Nc2ccc(CCN)cc2)c(Cl)c1=O [Compound 18, 5-((4-(2-aminoethyl)phenyl)amino)-4-chloro-2-methylpyridazin-3(2H)-one]
PrOF NMR chemical exchange regime with BRD4(1) (5FW-BRD4(1)): fast-intermediate exchange | sensitization of 4T1 cells to doxorubicin (4T1 breast cancer cells [2]; listed as BZ1): sensitized | PrOF NMR chemical exchange regime with PCAF (5FW-PCAF): slow exchange regime | PrOF NMR chemical exchange regime with CECR2 (5FW-CECR2): intermediate chemical exchange

Compound: CN(C)CCc1ccc(Nc2cnn(C)c(=O)c2Cl)cc1 [Compound 19, 4-chloro-5-((4-(2-(dimethylamino)ethyl)phenyl)amino)-2-methylpyridazin-3(2H)-one]
sensitization of 4T1 cells to doxorubicin (4T1 breast cancer cells [2]): sensitized; also recorded: synergize | effect on Sfn mRNA level (Stratifin (Sfn)): statistically significant increase

Compound: CN(C)CCc1ccc(Nc2c(Cl)cnn(C)c2=O)cc1 [Compound 20, 5-chloro-4-((4-(2-(dimethylamino)ethyl)phenyl)amino)-2-methylpyridazin-3(2H)-one]
fold weaker affinity than 18 (BPTF bromodomain): 140 fold | effect on Sfn mRNA level (Stratifin (Sfn)): not significantly affected

IC50 (BRD4(1)): > 250 µM
Compound: CC(C)n1ncc(Nc2ccc(CN)cc2)c(Cl)c1=O [Compound 25, 5-((4-(aminomethyl)phenyl)amino)-4-chloro-2-isopropylpyridazin-3(2H)-one]

Compound: CN(C)CCCOc1ccc(-c2cc(NCCCn3cccn3)nc(S(C)(=O)=O)n2)cc1 [TP-238]
fold higher affinity for CECR2 over BPTF (CECR2): 12 fold
